Values quoted from earlier work as cited in patent US12324852B2, “Administration of benzodiazepine compositions” (Neurelis, Inc., priority 2011, dated 2025).

Cc1ncc2n1-c1ccc(Cl)cc1C(c1ccccc1F)=NC2 [Midazolam, 8-chloro-6-(2-fluorophenyl)-1-methyl-4H-imidazo(1,5-a)benzodiazepine]
solubility in most aqueous solutions (neutral pH (e.g. about 6 to 8)): relatively insoluble
solubility in water (pH lower than about 4): soluble in water
